{
  "source": "ChEMBL document CHEMBL3727350",
  "about": "“Agents and methods for treating ischemic and other diseases” (2014)",
  "key": {"[1]": {"experiment": "Inhibition of cell proliferation of mouse B16-F1 cells at 10 uM incubated for 48 to 96 hrs", "format": "functional"}, "SW13 [2]": {"test_system": "SW13", "experiment": "Inhibition of cell proliferation of human SW13 cells at 1.25 to 10 uM incubated for 48 hrs by BrdU incorporation assay", "format": "functional, cell-based"}, "A-375": {"test_system": "A-375", "experiment": "Inhibition of cell proliferation of human A375 cells at 10 uM incubated for 48 to 96 hrs", "format": "functional"}, "[3]": {"experiment": "Cytotoxic activity against mouse primary cortical neurons assessed as reduction in cell viability at 1 to 7.5 uM incubated for 48 to 72 hrs by MTT assay", "format": "cell-based", "settings": "cerebral cortex neuron"}, "B16-F10 [4]": {"test_system": "B16-F10", "experiment": "Inhibition of cell proliferation of mouse B16F10 cells at 1.25 to 10 uM incubated for 72 hrs by SRB assay", "format": "functional, cell-based"}, "[5]": {"target": "Transient receptor potential cation channel subfamily M member 7 (Mus musculus) (UniProt Q923J1)", "sequence (Q923J1 whole entry)": "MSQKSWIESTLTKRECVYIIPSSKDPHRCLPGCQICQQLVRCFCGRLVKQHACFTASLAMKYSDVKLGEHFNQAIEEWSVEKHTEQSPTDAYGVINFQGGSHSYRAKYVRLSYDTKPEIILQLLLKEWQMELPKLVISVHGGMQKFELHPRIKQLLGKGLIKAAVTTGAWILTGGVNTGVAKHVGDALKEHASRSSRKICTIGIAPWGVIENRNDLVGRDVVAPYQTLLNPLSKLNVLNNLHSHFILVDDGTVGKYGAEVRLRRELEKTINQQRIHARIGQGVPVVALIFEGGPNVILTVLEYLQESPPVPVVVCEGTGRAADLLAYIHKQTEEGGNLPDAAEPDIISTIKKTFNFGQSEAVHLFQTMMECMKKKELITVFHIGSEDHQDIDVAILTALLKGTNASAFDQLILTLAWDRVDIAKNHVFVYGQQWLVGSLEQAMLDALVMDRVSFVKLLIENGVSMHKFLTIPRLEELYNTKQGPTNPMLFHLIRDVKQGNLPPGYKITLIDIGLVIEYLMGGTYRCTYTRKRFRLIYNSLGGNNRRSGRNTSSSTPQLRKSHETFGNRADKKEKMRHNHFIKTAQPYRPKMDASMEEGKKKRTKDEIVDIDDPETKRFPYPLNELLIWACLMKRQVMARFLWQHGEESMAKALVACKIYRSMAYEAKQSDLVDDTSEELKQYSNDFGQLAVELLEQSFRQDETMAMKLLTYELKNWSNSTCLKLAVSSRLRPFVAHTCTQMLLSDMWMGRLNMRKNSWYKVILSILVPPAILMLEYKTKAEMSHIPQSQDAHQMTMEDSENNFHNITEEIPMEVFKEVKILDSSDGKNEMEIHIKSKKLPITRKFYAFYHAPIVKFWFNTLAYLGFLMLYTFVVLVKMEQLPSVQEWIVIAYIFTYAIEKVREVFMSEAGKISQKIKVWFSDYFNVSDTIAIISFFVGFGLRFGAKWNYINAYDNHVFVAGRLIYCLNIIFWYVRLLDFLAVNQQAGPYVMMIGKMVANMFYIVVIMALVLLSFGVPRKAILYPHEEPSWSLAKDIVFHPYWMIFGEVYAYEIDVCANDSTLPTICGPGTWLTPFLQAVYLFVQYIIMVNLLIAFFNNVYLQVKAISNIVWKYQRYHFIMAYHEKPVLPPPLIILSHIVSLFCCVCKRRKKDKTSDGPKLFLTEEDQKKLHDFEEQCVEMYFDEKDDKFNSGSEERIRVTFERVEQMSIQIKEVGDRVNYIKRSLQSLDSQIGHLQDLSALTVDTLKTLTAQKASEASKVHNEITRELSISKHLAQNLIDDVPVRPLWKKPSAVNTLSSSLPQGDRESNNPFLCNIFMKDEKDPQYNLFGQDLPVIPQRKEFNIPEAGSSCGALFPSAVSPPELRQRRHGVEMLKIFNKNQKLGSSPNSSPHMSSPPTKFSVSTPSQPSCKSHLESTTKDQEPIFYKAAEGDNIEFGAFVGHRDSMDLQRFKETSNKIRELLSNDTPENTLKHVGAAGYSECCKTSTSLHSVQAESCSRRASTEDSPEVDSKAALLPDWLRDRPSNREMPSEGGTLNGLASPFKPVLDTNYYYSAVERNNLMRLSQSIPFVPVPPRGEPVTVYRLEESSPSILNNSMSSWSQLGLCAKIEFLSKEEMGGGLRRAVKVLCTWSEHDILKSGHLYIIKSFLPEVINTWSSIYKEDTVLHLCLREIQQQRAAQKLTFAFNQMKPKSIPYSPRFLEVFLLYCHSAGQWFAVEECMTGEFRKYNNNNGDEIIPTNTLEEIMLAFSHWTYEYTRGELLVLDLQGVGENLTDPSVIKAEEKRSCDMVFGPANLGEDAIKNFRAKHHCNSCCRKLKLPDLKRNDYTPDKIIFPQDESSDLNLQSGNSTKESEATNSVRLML", "experiment": "Inhibition of TRPM7 in mouse mouse primary cortical neurons exposed to 2 hrs oxygen glucose deprivation condition assessed as reduction in TRPM7-mediated anoxic cell death measured after 20 hrs by propidium iodide uptake assay", "format": "cell-based", "settings": "Cerebral cortex neuron"}, "[6]": {"experiment": "Inhibition of cell proliferation of mouse NIH/3T3 cells at 1.25 to 10 uM incubated for 72 hrs by propidium iodide staining assay", "format": "cell-based", "settings": "nih3t3, 72 h"}, "SW13 [7]": {"test_system": "SW13", "experiment": "Inhibition of cell proliferation of human SW13 cells at 1.25 to 10 uM incubated for 72 hrs by SRB assay", "format": "functional, cell-based"}, "MDA-MB-231 [8]": {"test_system": "MDA-MB-231", "experiment": "Inhibition of cell proliferation of human MDA-MB-231 cells at 10 uM incubated for 48 to 96 hrs", "format": "functional"}, "[9]": {"experiment": "Inhibition of cell proliferation of human HCT116 cells at 10 uM incubated for 48 to 96 hrs", "format": "functional", "settings": "HCT-116"}, "[10]": {"target": "Transient receptor potential cation channel subfamily M member 7 (Mus musculus) (UniProt Q923J1)", "experiment": "Inhibition of Tet-induced Flag-tagged mouse TRPM7 expressed in HEK293 cells assessed as reduction in channel currents at 2 mM using compound applied intracellularly by whole cell patch clamp assay", "format": "cell-based"}, "MCF7": {"test_system": "MCF7", "experiment": "Inhibition of cell proliferation of human MCF7 cells at 10 uM incubated for 48 to 96 hrs", "format": "functional"}, "[11]": {"experiment": "Inhibition of cell proliferation of mouse B16F10 cells at 10 uM incubated for 48 to 96 hrs", "format": "functional", "settings": "B16-F10"}, "[12]": {"experiment": "Inhibition of cell proliferation of human DMS456 cells at 10 uM incubated for 48 to 96 hrs", "format": "functional"}, "Y79 [13]": {"test_system": "Y79", "experiment": "Inhibition of cell proliferation of human Y79 cells at 1 uM to 7.5 uM by MTT assay", "format": "functional, cell-based"}, "[14]": {"target": "Transient receptor potential cation channel subfamily M member 7 (Mus musculus) (UniProt Q923J1)", "experiment": "Inhibition of TRPM7 in mouse mouse primary cortical neurons exposed to 2 hrs oxygen glucose deprivation condition assessed as reduction in TRPM7-mediated anoxic cell death at 0.625 to 5 uM pre-incubated for 24 hrs before OGD measured after 20 hrs by propidium iodide uptake assay", "format": "cell-based", "settings": "Cerebral cortex neuron"}, "[15]": {"target": "Transient receptor potential cation channel subfamily M member 7 (Mus musculus) (UniProt Q923J1)", "experiment": "Inhibition of Tet-induced Flag-tagged mouse TRPM7 expressed in HEK293 cells assessed as reduction in channel currents at 0.3 to 30 uM by whole cell patch clamp assay", "format": "cell-based"}, "MDA-MB-231 [16]": {"test_system": "MDA-MB-231", "experiment": "Inhibition of cell proliferation of human MDA-MB-231 cells at 1.25 to 10 uM incubated for 72 hrs by SRB assay", "format": "functional, cell-based"}, "[17]": {"target": "Transient receptor potential cation channel subfamily M member 7 (Rattus norvegicus) (UniProt Q925B3)", "sequence (Q925B3 whole entry)": "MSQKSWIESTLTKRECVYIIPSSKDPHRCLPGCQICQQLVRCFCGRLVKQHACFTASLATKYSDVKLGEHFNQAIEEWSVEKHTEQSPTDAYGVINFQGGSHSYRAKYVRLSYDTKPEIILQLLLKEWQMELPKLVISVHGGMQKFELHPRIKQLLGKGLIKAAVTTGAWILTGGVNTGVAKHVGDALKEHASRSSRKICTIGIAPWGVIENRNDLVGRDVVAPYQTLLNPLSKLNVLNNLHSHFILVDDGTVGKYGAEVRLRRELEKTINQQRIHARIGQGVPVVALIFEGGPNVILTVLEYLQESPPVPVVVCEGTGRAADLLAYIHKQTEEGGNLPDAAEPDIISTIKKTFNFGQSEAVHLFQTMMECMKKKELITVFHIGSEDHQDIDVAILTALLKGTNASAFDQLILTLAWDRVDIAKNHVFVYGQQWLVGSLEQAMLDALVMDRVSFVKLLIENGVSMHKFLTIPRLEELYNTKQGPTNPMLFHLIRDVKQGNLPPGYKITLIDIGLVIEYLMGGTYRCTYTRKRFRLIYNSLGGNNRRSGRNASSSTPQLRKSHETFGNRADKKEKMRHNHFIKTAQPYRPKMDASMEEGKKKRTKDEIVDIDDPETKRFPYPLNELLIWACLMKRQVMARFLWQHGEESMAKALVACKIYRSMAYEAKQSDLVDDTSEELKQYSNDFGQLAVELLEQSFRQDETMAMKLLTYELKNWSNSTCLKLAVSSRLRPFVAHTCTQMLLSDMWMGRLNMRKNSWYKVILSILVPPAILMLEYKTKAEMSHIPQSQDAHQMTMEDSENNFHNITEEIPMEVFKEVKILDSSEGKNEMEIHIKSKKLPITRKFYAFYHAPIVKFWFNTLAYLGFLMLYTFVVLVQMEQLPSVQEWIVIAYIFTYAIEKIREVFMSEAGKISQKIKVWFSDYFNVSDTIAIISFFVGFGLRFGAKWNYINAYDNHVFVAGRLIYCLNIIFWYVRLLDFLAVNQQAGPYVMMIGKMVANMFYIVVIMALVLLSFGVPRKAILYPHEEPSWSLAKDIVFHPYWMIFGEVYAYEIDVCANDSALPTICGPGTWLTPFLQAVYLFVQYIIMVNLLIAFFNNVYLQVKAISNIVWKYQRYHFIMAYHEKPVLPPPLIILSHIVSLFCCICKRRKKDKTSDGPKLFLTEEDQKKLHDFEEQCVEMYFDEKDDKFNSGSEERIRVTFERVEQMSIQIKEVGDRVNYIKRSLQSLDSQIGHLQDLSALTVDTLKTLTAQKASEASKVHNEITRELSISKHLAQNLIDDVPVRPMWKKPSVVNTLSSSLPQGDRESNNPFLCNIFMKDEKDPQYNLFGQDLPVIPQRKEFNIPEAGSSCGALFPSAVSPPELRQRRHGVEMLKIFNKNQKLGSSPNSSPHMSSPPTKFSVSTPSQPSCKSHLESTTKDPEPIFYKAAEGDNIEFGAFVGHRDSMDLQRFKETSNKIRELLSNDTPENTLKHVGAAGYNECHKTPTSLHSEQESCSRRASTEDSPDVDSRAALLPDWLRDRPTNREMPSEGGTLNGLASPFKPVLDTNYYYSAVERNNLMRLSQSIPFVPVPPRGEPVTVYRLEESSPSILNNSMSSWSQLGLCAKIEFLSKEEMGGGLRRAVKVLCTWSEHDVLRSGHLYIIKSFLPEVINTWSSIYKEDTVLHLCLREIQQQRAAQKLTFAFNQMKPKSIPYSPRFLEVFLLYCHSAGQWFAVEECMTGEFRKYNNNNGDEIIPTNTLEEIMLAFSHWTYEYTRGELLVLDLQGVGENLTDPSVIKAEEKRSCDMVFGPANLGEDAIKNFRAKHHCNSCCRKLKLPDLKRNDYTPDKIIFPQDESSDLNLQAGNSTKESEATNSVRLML", "experiment": "Inhibition of TRPM7 in rat H9C2 cells assessed as reduction in channel currents at 0.3 to 30 uM by whole cell patch clamp assay", "format": "cell-based"}, "[18]": {"target": "Transient receptor potential cation channel subfamily M member 7 (Rattus norvegicus) (UniProt Q925B3)", "experiment": "Inhibition of TRPM7 in rat H9C2 cells exposed to oxygen glucose deprivation condition for 1 to 6 hrs assessed as reduction in TRPM7-mediated anoxic cell death in presence of 1 uM nifedipine by propidium iodide uptake assay", "format": "cell-based"}, "HeLa [19]": {"test_system": "HeLa", "experiment": "Inhibition of cell proliferation of human HeLa cells at 1.25 to 10 uM incubated for 48 hrs by BrdU incorporation assay", "format": "functional, cell-based"}, "RXF 393": {"test_system": "RXF 393", "experiment": "Antitumor activity against human RXF393 cells implanted in mouse assessed as inhibition of tumor growth at 20 mg/kg, iv qd", "format": "functional, organism-based"}, "U2OS": {"test_system": "U2OS", "experiment": "Inhibition of cell proliferation of human U2OS cells at 10 uM incubated for 48 to 96 hrs", "format": "functional"}, "[20]": {"experiment": "Inhibition of cell proliferation of human WERI cells at 10 uM incubated for 48 to 96 hrs", "format": "functional"}, "[21]": {"experiment": "Inhibition of cell proliferation of human DMS53 cells at 10 uM incubated for 48 to 96 hrs", "format": "functional", "settings": "DMS-53"}, "B16-F1": {"test_system": "B16-F1", "experiment": "Inhibition of cell proliferation of mouse B16-F1 cells at 1.25 to 10 uM incubated for 72 hrs by SRB assay", "format": "functional, cell-based"}, "[22]": {"target": "Transient receptor potential cation channel subfamily M member 7 (Mus musculus) (UniProt Q923J1)", "experiment": "Inhibition of TRPM7 in mouse primary neuronal cells exposed to oxygen glucose deprivation condition for 1 to 3 hrs assessed as reduction in TRPM7-mediated anoxic cell death dosed after oxygen glucose deprivation condition by propidium iodide uptake assay", "settings": "Primary neuron"}, "[23]": {"experiment": "Inhibition of cell proliferation of human […] cells at 10 uM incubated for 48 to 96 hrs", "format": "functional", "settings": "RXF 393"}, "Y79 [24]": {"test_system": "Y79", "experiment": "Inhibition of cell migration of human Y79 cells assessed as reduction in cell ability to migrate away from retina in cultured explants at 5 uM", "format": "functional, cell-based"}, "NCI-H292": {"test_system": "NCI-H292", "experiment": "Inhibition of cell proliferation of human NCI-H292 cells at 10 uM incubated for 48 to 96 hrs", "format": "functional"}, "SW13 [25]": {"test_system": "SW13", "experiment": "Inhibition of cell proliferation of human SW13 cells at 10 uM incubated for 48 to 96 hrs", "format": "functional"}, "WERI [26]": {"test_system": "WERI", "experiment": "Inhibition of cell migration of human WERI cells assessed as reduction in cell ability to migrate away from retina in cultured explants at 1 uM", "format": "functional, cell-based"}, "Y79 [27]": {"test_system": "Y79", "experiment": "Reduction in cell viability in human Y79 cells on rat retinal explants at 5 uM", "format": "functional, cell-based"}, "[28]": {"target": "Transient receptor potential cation channel subfamily M member 7 (Mus musculus) (UniProt Q923J1)", "experiment": "Inhibition of Tet-induced Flag-tagged mouse TRPM7 expressed in HEK293 cells assessed as reduction in channel currents at 2 mM using compound applied extracellularly by whole cell patch clamp assay", "format": "cell-based"}, "[29]": {"target": "Transient receptor potential cation channel subfamily M member 7 (Mus musculus) (UniProt Q923J1)", "experiment": "Inhibition of Tet-induced Flag-tagged mouse TRPM7 expressed in HEK293 cells assessed as inhibition of channel-mediated cell death in presence of Mg2+ incubated for 24 to 48 hrs by propidium iodide uptake assay", "format": "cell-based", "parameters": "concentration or dose not given beside the values"}, "[30]": {"target": "Transient receptor potential cation channel subfamily M member 7 (Mus musculus) (UniProt Q923J1)", "experiment": "Inhibition of TRPM7 in mouse primary neuronal cells exposed to oxygen glucose deprivation condition for 1 to 3 hrs assessed as reduction in TRPM7-mediated anoxic cell death dosed before oxygen glucose deprivation condition by propidium iodide uptake assay", "settings": "Primary neuron"}, "HeLa [31]": {"test_system": "HeLa", "experiment": "Inhibition of cell proliferation of human HeLa cells at 10 uM incubated for 48 to 96 hrs", "format": "functional"}, "[32]": {"experiment": "Toxicity in mouse assessed as maximum tolerated dose", "format": "organism-based", "settings": "in vivo"}, "WERI [33]": {"test_system": "WERI", "experiment": "Inhibition of cell proliferation of human WERI cells at 0.25 uM to 10 uM by MTT assay", "format": "functional, cell-based"}, "Y79 [34]": {"test_system": "Y79", "experiment": "Inhibition of cell proliferation of human Y79 cells at 10 uM incubated for 48 to 96 hrs", "format": "functional"}, "B16-F10 [35]": {"test_system": "B16-F10", "experiment": "Antitumor activity against mouse B16F10 cells implanted in mouse assessed as inhibition of tumor growth at 20 mg/kg, iv qd", "format": "functional, organism-based"}},
  "note": "The source made the active and inactive calls. The calls are words filed in the database; no cut-off is given here.",
  "data": [
    {"compound": "COc1cc2c(cc1OC)C(c1sc3ccccc3c1Cl)=NCC2", "values": [
      {"measurement": "inhibition at 10 µM", "setting": "[1]", "result": "> 20", "unit": "%"},
      {"measurement": "inhibition", "setting": "SW13 [2]", "result": "Active"},
      {"measurement": "inhibition at 10 µM", "setting": "A-375", "result": "> 20", "unit": "%"},
      {"measurement": "Activity", "setting": "[3]", "result": "Non-toxic"},
      {"measurement": "inhibition", "setting": "B16-F10 [4]", "result": "Active"},
      {"measurement": "inhibition", "setting": "[5]", "result": "Active"},
      {"measurement": "Activity", "setting": "[6]", "result": "Non-toxic"},
      {"measurement": "inhibition", "setting": "SW13 [7]", "result": "Active"},
      {"measurement": "inhibition at 10 µM", "setting": "MDA-MB-231 [8]", "result": "> 20", "unit": "%"},
      {"measurement": "inhibition at 10 µM", "setting": "[9]", "result": "> 20", "unit": "%"},
      {"measurement": "inhibition", "setting": "[10]", "result": "inactive"},
      {"measurement": "inhibition at 10 µM", "setting": "MCF7", "result": "> 20", "unit": "%"},
      {"measurement": "inhibition at 10 µM", "setting": "[11]", "result": "> 20", "unit": "%"},
      {"measurement": "inhibition at 10 µM", "setting": "[12]", "result": "> 20", "unit": "%"},
      {"measurement": "inhibition", "setting": "Y79 [13]", "result": "Active"},
      {"measurement": "inhibition", "setting": "[14]", "result": "Active"},
      {"measurement": "inhibition", "setting": "[15]", "result": "Active"},
      {"measurement": "inhibition", "setting": "MDA-MB-231 [16]", "result": "Active"},
      {"measurement": "inhibition", "setting": "[17]", "result": "Active"},
      {"measurement": "inhibition", "setting": "[18]", "result": "Active"},
      {"measurement": "inhibition", "setting": "HeLa [19]", "result": "Active"},
      {"measurement": "TGI", "setting": "RXF 393", "result": "Active"},
      {"measurement": "inhibition at 10 µM", "setting": "U2OS", "result": "> 20", "unit": "%"},
      {"measurement": "inhibition at 10 µM", "setting": "[20]", "result": "> 20", "unit": "%"},
      {"measurement": "inhibition at 10 µM", "setting": "[21]", "result": "> 20", "unit": "%"},
      {"measurement": "inhibition", "setting": "B16-F1", "result": "Active"},
      {"measurement": "inhibition", "setting": "[22]", "result": "Active"},
      {"measurement": "inhibition at 10 µM", "setting": "[23]", "result": "> 20", "unit": "%"},
      {"measurement": "inhibition", "setting": "Y79 [24]", "result": "Active"},
      {"measurement": "inhibition at 10 µM", "setting": "NCI-H292", "result": "> 20", "unit": "%"},
      {"measurement": "inhibition at 10 µM", "setting": "SW13 [25]", "result": "> 20", "unit": "%"},
      {"measurement": "inhibition", "setting": "WERI [26]", "result": "Active"},
      {"measurement": "inhibition", "setting": "Y79 [27]", "result": "Active"},
      {"measurement": "inhibition", "setting": "[28]", "result": "Active"},
      {"measurement": "inhibition", "setting": "[29]", "result": "Active"},
      {"measurement": "inhibition", "setting": "[30]", "result": "Active"},
      {"measurement": "inhibition at 10 µM", "setting": "HeLa [31]", "result": "> 20", "unit": "%"},
      {"measurement": "MTD", "setting": "[32]", "result": "< 20", "unit": "mg/kg"},
      {"measurement": "inhibition", "setting": "WERI [33]", "result": "Active"},
      {"measurement": "inhibition at 10 µM", "setting": "Y79 [34]", "result": "> 20", "unit": "%"},
      {"measurement": "TGI", "setting": "B16-F10 [35]", "result": "Active"}
    ]}
  ]
}
